Data from patent US20120177701A1, “COMPOSITIONS COMPRISING IMMUNOSTIMULATORY NUCLEIC ACIDS AND RELATED METHODS” (priority 2010, published 2012).

Columns and labels:
human TLR3 = molecular target: T1, human TLR3 (Homo sapiens, UniProt O15455); type: cell-based
T1 construct: expressed in transfected cells; host or cells: HEK-Blue hTLR3 (HEK293-derived reporter line)
T1 sequence (O15455 24-904): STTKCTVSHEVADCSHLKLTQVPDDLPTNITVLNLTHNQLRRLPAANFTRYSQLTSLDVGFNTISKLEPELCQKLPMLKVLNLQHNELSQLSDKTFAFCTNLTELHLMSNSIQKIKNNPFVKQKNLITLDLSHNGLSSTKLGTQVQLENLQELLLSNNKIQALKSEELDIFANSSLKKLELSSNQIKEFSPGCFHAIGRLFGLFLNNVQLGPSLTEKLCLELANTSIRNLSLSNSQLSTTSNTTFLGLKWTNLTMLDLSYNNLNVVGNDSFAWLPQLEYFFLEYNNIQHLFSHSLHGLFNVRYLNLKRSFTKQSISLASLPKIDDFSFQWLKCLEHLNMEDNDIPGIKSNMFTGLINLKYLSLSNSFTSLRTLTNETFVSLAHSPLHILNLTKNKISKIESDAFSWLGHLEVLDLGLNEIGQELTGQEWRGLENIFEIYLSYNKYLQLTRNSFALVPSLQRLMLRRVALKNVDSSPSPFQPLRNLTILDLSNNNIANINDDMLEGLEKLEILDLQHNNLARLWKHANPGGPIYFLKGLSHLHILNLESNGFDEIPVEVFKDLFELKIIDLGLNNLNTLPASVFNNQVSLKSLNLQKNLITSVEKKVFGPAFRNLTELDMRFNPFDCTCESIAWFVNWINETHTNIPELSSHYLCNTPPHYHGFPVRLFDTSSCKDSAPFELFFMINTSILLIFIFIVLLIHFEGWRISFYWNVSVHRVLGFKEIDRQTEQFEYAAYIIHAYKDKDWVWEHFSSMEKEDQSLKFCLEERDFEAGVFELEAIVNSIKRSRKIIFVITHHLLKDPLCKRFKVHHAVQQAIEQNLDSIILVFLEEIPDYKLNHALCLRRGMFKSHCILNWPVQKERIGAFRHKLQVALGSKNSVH

J774 murine macrophages = assay: TNF-α induction in mouse macrophage cell line J774; type: cell-based
Procedure: Induction of TNF-α by macrophages is a hallmark of human TLR8 activation (Forsbach et al., 2008, J. Immunol., 180:3729-38; Ghosh et al., 2007, Int. Immunopharmacol., 7:1111-21; Gorden et al., 2005, J. Immunol., 174:1259-68). […] In the following experiment mouse macrophage cell line, J774, has been transfected by test ribonucleotides as described above for HEK-Blue™ hTLR8 cells (with the exception that 2-10×10^4 cells/well were used) and TNF-α was measured in culture supernatants at 16-20 hours after transfection.

human TLR8 = molecular target: T2, human TLR8 (Homo sapiens, UniProt Q9NR97); assay: HEK-Blue hTLR8 NF-kB-inducible SEAP reporter assay (TLR8 activation); type: cell-based
T2 construct: host or cells: HEK293 (HEK-Blue hTLR8) with NF-kB-inducible SEAP reporter
T2 sequence (Q9NR97 27-1041): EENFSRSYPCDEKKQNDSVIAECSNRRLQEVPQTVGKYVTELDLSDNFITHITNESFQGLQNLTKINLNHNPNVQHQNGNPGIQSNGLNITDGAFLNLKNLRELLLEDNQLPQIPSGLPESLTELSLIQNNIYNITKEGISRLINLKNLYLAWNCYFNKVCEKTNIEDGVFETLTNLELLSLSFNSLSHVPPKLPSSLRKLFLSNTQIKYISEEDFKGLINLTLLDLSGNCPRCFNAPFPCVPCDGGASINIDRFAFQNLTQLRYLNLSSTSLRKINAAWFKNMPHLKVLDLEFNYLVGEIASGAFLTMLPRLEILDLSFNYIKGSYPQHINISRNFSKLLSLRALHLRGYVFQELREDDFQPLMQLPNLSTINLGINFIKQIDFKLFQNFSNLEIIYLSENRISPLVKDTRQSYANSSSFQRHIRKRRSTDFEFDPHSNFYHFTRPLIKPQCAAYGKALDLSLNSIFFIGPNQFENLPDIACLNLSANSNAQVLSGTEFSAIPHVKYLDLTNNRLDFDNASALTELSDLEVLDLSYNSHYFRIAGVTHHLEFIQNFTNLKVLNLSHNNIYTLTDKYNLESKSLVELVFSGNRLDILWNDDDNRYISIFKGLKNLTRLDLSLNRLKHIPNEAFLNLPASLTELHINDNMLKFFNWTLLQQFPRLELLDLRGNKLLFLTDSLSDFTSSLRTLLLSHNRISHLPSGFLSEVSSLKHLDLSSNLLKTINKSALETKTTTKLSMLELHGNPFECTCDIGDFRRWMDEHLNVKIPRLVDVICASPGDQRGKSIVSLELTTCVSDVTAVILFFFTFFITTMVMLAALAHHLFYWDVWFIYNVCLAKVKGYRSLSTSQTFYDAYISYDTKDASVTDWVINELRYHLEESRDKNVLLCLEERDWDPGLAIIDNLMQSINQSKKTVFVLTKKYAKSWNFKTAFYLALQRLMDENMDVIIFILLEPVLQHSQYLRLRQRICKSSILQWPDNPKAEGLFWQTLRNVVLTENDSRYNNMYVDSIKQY

HEK-Blue™ Null = type: cell-based, human
human TLR9 = molecular target: T3, human TLR9 (Homo sapiens, UniProt Q9NR96); type: cell-based
T3 construct: expressed in transfected cells; host or cells: HEK-Blue hTLR9 (HEK293-derived reporter line)
T3 sequence (Q9NR96 26-1032): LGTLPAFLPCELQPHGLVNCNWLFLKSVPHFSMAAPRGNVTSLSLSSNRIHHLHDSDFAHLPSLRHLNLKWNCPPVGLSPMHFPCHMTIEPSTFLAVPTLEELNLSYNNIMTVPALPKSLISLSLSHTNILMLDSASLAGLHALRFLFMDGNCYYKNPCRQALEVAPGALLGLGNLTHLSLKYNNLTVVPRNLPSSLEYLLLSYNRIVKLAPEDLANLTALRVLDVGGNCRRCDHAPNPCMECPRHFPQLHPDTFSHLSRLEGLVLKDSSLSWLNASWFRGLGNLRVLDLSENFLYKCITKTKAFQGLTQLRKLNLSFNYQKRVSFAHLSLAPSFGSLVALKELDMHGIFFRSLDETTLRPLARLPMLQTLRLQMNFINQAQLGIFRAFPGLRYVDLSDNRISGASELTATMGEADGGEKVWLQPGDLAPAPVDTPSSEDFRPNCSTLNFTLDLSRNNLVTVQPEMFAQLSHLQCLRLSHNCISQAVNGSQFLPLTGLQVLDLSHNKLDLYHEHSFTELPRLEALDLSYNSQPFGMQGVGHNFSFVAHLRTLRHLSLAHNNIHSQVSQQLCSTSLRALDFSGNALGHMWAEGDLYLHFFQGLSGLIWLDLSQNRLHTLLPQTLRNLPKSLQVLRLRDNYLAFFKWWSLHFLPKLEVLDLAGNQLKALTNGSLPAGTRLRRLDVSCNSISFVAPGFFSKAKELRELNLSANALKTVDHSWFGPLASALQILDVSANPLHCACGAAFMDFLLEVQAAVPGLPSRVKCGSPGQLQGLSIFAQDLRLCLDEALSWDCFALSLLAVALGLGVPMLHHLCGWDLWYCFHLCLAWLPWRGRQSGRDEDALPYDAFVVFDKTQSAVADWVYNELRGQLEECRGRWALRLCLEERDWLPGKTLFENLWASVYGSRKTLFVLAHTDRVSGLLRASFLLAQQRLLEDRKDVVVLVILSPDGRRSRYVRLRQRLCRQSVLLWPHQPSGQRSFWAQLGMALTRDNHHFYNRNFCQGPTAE

[1] = tested on: primary human lymphocytes; type: cell-based

Substance: 5′-AAGAAGAAAUAGAUUUAUUUUUAAAUUUUUGUGU-3′ [SL-0005]
- activation of SEAP expression (human TLR3): No activation of SEAP expression
- TNF-α induction, described in words (J774 murine macrophages): strongly induced TNF-α expression, to the level seen when R-0006 was used
- TLR8 activation (fold increase of SEAP induction over the background), described in words (human TLR8): stronger levels of TLR8 activation
- concentration at which TLR8 activation was detected starting (human TLR8): 40 nM
- activation of SEAP expression (HEK-Blue™ Null): No activation of SEAP expression
- activation of SEAP expression (human TLR9): No activation of SEAP expression
- 11-12(p40) induction [1]: significant levels
- IFNγ induction [1]: significant levels
- IL-4 induction (Th2-type cytokine) [1]: insignificant
- IL-5 induction (Th2-type cytokine) [1]: insignificant
- IL-6 induction [1]: significant levels
- IL-10 induction [1]: significant levels
- IL-23 induction [1]: significant levels
- TNFα induction [1]: significant levels
